Measured values published in ChEMBL document CHEMBL3098065, “Discovery of Pyridyl Bis(oxy)dibenzimidamide Derivatives as Selective Matriptase Inhibitors” (ACS Med Chem Lett, 2013).
Values after ≈ are worked out from the molar mass of the structure shown.

Assays:
[1] = biological target: T1, Suppressor of tumorigenicity 14 protein (Homo sapiens, UniProt Q9Y5Y6); assay: Inhibition of matriptase-SP1 (615 to 855) (unknown origin) expressed in Escherichia coli BL21(DE3) using Boc-Gln-Ala-Arg-7-amido-4-methyl coumarin hydrobromide as substrate by fluorescence assay
T1 sequence (Q9Y5Y6 whole entry): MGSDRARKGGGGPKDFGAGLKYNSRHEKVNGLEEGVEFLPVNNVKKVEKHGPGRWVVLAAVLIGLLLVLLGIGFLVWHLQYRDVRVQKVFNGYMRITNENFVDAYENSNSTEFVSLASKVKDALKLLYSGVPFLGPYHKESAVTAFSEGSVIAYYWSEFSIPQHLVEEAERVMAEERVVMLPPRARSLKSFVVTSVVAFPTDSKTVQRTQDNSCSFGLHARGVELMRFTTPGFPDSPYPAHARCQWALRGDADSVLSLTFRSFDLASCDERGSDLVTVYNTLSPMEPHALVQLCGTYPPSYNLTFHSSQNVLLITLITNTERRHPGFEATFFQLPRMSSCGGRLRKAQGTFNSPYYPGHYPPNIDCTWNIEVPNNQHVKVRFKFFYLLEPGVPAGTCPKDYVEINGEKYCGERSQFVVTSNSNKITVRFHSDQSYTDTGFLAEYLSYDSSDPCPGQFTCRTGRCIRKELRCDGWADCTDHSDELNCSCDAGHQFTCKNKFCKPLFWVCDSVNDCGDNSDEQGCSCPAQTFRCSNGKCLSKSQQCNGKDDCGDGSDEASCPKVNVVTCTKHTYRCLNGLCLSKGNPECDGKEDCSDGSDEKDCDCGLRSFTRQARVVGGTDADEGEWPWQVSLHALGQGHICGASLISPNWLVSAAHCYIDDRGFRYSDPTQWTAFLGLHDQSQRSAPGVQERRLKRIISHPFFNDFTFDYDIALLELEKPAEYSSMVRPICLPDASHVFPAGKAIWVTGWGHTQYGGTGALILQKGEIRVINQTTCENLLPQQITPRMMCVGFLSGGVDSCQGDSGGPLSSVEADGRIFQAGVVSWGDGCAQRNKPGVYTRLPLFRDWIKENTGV

[2] = biological target: Prothrombin (Homo sapiens, UniProt P00734); assay: Inhibition of thrombin (unknown origin) by fluorescence assay
[3] = biological target: Trypsin (Homo sapiens, UniProt P07477+P07478+P35030); assay: Inhibition of trypsin (unknown origin) by fluorescence assay; format: protein assay
[4] = biological target: Coagulation factor X (Homo sapiens, UniProt P00742); assay: Inhibition of factor 10a (unknown origin) using CH3OCO-D-CHA-Gly-Arg-pNA.AcoH as substrate
[5] = biological target: Urokinase-type plasminogen activator (Homo sapiens, UniProt P00749); assay: Inhibition of uPA (unknown origin) using L-PyroGlu-Gly-Arg-pNA.HCl as substrate
[6] = Metabolic stability in mouse liver microsomes assessed as compound remaining at 1 uM after 40 mins by LC-MS/MS analysis; format: ADME, Microsome; conditions: read-out: Stability
[7] = Metabolic stability in mouse liver microsomes assessed as compound remaining at 1 uM after 20 mins by LC-MS/MS analysis; format: ADME, Microsome; conditions: read-out: Stability
[8] = Kinetic aqueous solubility of the compound at pH 7.4 after 16 hrs by shake flask method; format: physicochemical; conditions: read-out: Kinetic_solubility
[9] = tested on: DU-145; assay: Antiinvasive activity against human DU145 cells at 10 uM incubated overnight followed by fibronectin addition measured after 48 hrs by calcein AM assay relative to control; format: functional; conditions: DU-145, 48 h
[10] = tested on: DU-145; assay: Antimigratory activity against human DU145 cells at 10 uM incubated overnight followed by fibronectin addition measured after 24 hrs by calcein AM assay relative to control; format: functional; conditions: DU-145, 24 h
[11] = tested on: PC-3; assay: Antiinvasive activity against human PC3 cells at 10 uM incubated overnight followed by fibronectin and HGF addition measured after 48 hrs by calcein AM assay relative to control; format: functional; conditions: PC-3, 48 h
[12] = tested on: PC-3; assay: Antimigratory activity against human PC3 cells at 10 uM incubated overnight followed by fibronectin and HGF addition measured after 24 hrs by calcein AM assay relative to control; format: functional; conditions: PC-3, 24 h
[13] = tested on: DU-145; assay: Cytotoxicity against human DU145 cells at 10 uM after 72 hrs by calcein AM assay relative to control; format: functional
[14] = tested on: PC-3; assay: Cytotoxicity against human PC3 cells at 10 uM after 72 hrs by calcein AM assay relative to control; format: functional

Chain of Coagulation factor X (P00742 41-179 limits assumed): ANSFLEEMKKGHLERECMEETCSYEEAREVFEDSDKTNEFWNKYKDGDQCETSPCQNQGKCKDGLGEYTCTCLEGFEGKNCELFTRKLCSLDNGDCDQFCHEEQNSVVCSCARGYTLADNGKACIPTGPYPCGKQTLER
Chain of Coagulation factor X (P00742 235-488 limits assumed): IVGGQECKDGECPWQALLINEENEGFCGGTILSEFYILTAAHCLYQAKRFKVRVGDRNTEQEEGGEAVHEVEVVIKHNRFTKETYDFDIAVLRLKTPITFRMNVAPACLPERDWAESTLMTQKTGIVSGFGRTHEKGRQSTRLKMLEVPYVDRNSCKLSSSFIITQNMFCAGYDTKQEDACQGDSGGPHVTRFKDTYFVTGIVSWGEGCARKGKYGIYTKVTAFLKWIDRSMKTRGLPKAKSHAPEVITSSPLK

`N=C(N)c1ccccc1` [BENZAMIDINE] gave a Ki [1] of 400000 nM.
`N=C(N)c1ccc(Oc2ccc(C(=O)N3CCC(CCN)CC3)c(Oc3ccc(C(=N)N)cc3)n2)cc1` gave a Ki [2] greater than 2500 nM, a Ki [3] of 3600 nM and a Ki [4] of 1500 nM. The Ki [5] was greater than 10000 nM and the Ki [1] was 200 nM.
In the case of `N=C(N)c1ccc(Oc2ccc(C(=O)N[C@H]3CC[C@H](N)CC3)c(Oc3ccc(C(=N)N)cc3)n2)cc1`, the Ki [2] is reported as 3400 nM, the Ki [3] is reported as 2000 nM and the Ki [4] is reported as 600 nM. For the same compound, the Ki [5] was greater than 10000 nM and the Ki [1] was 500 nM.
Work on `N=C(N)c1ccc(Oc2ccc(NS(=O)(=O)c3ccc4ccccc4c3)c(Oc3ccc(C(=N)N)cc3)n2)cc1` yielded a remaining at 40 min, 1 µM [6] of 73.2%, a remaining at 20 min, 1 µM [7] of 76.4% and a solubility kinetic at 16 h [8] of 191 µM (≈ 106 µg/mL). The inhibition at 10 µM [9] was 47%, the inhibition at 10 µM [10] was 59% and the inhibition at 10 µM [11] was 42%. It also gave an inhibition at 10 µM [12] of 39%, an Activity [13] of 20% and an Activity [14] of 20%. For the same compound, the Ki [2] was 5800 nM, the Ki [3] was 1300 nM and the Ki [4] was 300 nM. For the same compound, the Ki [5] was greater than 10000 nM and the Ki [1] was 40 nM.
`N=C(N)c1ccc(Oc2ccc(N)c(Oc3ccc(C(=N)N)cc3)n2)cc1` showed a Ki [2] of 4400 nM, a Ki [3] of 5500 nM and a Ki [4] of 1200 nM. The Ki [5] was greater than 10000 nM and the Ki [1] was 2900 nM.
With `N=C(N)c1ccc(Oc2cccc(Oc3ccc(C(=N)N)cc3)n2)cc1` the Ki [2] was 600 nM, the Ki [3] was 2800 nM and the Ki [1] was 9600 nM.
In the case of `N=C(N)c1ccc(Oc2cc(C(=O)N[C@H]3CC[C@H](N)CC3)cc(Oc3ccc(C(=N)N)cc3)n2)cc1`, the remaining at 40 min, 1 µM [6] is reported as 95.6%, the remaining at 20 min, 1 µM [7] is reported as 100% and the solubility kinetic at 16 h [8] is reported as 196 µM (≈ 95.6 µg/mL). It also gave an inhibition at 10 µM [9] of 69%, an inhibition at 10 µM [10] of 65% and an inhibition at 10 µM [11] of 42%. The inhibition at 10 µM [12] was 53%, the Activity [13] was 0% and the Activity [14] was 1%. It also gave a Ki [2] of 2500 nM, a Ki [3] of 2400 nM and a Ki [4] of 400 nM. The Ki [5] was greater than 10000 nM and the Ki [1] was 40 nM.
Work on `N=C(N)c1ccc(Oc2ccc(NS(=O)(=O)c3cccc4cccnc34)c(Oc3ccc(C(=N)N)cc3)n2)cc1` yielded a Ki [5] greater than 10000 nM and a Ki [1] of 200 nM.
With `N=C(N)c1ccc(Oc2ccc(NS(=O)(=O)c3cc(F)cc(F)c3)c(Oc3ccc(C(=N)N)cc3)n2)cc1` the Ki [5] was greater than 10000 nM and the Ki [1] was 1200 nM.
For `N=C(N)c1ccc(Oc2cc(C(=O)NC3CCN(CCCN)CC3)cc(Oc3ccc(C(=N)N)cc3)n2)cc1`, the Ki [2] was 2900 nM, the Ki [4] was 100 nM and the Ki [5] was greater than 10000 nM. For the same compound, the Ki [1] was 40 nM.
Work on `N=C(N)c1ccc(Oc2ccc(NS(=O)(=O)c3ccc(F)cc3)c(Oc3ccc(C(=N)N)cc3)n2)cc1` yielded a remaining at 40 min, 1 µM [6] of 86.5%, a remaining at 20 min, 1 µM [7] of 89% and a solubility kinetic at 16 h [8] of 194 µM (≈ 101 µg/mL). It also gave an inhibition at 10 µM [9] of 61%, an inhibition at 10 µM [10] of 69% and an inhibition at 10 µM [11] of 60%. It also gave an inhibition at 10 µM [12] of 65%, an Activity [13] of 0% and an Activity [14] of 0%. For the same compound, the Ki [2] was 4100 nM, the Ki [3] was 1400 nM and the Ki [4] was 300 nM. The Ki [5] was greater than 10000 nM and the Ki [1] was 200 nM.
In the case of `N=C(N)c1ccc(Oc2ccc(C(=O)NC3CCN(C(=O)CCN)CC3)c(Oc3ccc(C(=N)N)cc3)n2)cc1`, the Ki [2] is reported as 3600 nM, the Ki [4] is reported as 2300 nM and the Ki [5] is reported as greater than 10000 nM. It also gave a Ki [1] of 600 nM.
`N=C(N)c1ccc(Oc2cc(C(=O)N3CCC(CCN)CC3)cc(Oc3ccc(C(=N)N)cc3)n2)cc1` gave a Ki [2] greater than 2500 nM, a Ki [3] of 2200 nM and a Ki [4] of 200 nM. It also gave a Ki [5] greater than 10000 nM and a Ki [1] of 100 nM.
Compound `N=C(N)c1ccc(Oc2ccc(C(=O)NCCCN)c(Oc3ccc(C(=N)N)cc3)n2)cc1` has a Ki [2] of 2100 nM, a Ki [3] of 300 nM and a Ki [4] of 300 nM. It also gave a Ki [5] greater than 10000 nM and a Ki [1] of 400 nM.
